The record followed here is PubChem BioAssay AID1259407 (Chemical Carcinogenesis Research Information System (CCRIS), 2018).

Active and inactive are the calls of the source. How the calls were made is not given here.

This series relates to CCRIS mutagenicity, Ames/micronucleus/aberration tests. In words: CCRIS mutagenicity studies.
[1] abbreviates: Test System: AMES SALMONELLA TYPHIMURIUM, Strain/Indicator: TA98, Metabolic Activation: NONE, Method: STANDARD PLATE.
The mark [2] stands for this setting: Test System: AMES SALMONELLA TYPHIMURIUM, Strain/Indicator: TA98, Metabolic Activation: RAT, LIVER, S-9, AROCLOR 1254, Method: STANDARD PLATE.
Setting [3] is: Test System: AMES SALMONELLA TYPHIMURIUM, Strain/Indicator: TA100, Metabolic Activation: NONE, Method: STANDARD PLATE.
[4] abbreviates: Test System: AMES SALMONELLA TYPHIMURIUM, Strain/Indicator: TA100, Metabolic Activation: RAT, LIVER, S-9, AROCLOR 1254, Method: STANDARD PLATE.
Setting [5] is: Test System: AMES SALMONELLA TYPHIMURIUM, Strain/Indicator: TA1538, Metabolic Activation: NONE, Method: STANDARD PLATE.
[6] abbreviates: Test System: CHINESE HAMSTER V-79, Strain/Indicator: V-79/6-THIOGUANINE, Metabolic Activation: NONE.

Consider `O=[N+]([O-])c1cccc2c1-c1cccc3c([N+](=O)[O-])ccc-2c13`, for which the mutagenic call is “active; positive” (Test System: AMES SALMONELLA TYPHIMURIUM, Strain/Indicator: TA97, Metabolic Activation: NONE); “active; positive” (Test System: AMES SALMONELLA TYPHIMURIUM, Strain/Indicator: TA98(1,8-DNP6), Metabolic Activation: NONE); “active; positive” (Test System: AMES SALMONELLA TYPHIMURIUM, Strain/Indicator: TA98(NR), Metabolic Activation: NONE); “active; positive” (Test System: AMES SALMONELLA TYPHIMURIUM, Strain/Indicator: TA98, Metabolic Activation: NONE); “active; positive” (Test System: AMES SALMONELLA TYPHIMURIUM, Strain/Indicator: TA100, Metabolic Activation: NONE); “inactive; negative” (Test System: AMES SALMONELLA TYPHIMURIUM, Strain/Indicator: TA1535, Metabolic Activation: NONE). Moreover, the mutagenic call was “active; positive” (Test System: AMES SALMONELLA TYPHIMURIUM, Strain/Indicator: TA1537, Metabolic Activation: NONE); “active; positive” (Test System: AMES SALMONELLA TYPHIMURIUM, Strain/Indicator: TA1538, Metabolic Activation: NONE); “active; positive” (Test System: AMES SALMONELLA TYPHIMURIUM, Strain/Indicator: TA1978, Metabolic Activation: NONE).
For `N#Cc1cc([N+](=O)[O-])ccc1N=Nc1ccc(N(CCO)CCO)cc1`, the mutagenic call is “active; positive” under setting [1]; “active; positive” under setting [2]; “active; positive” under setting [3]; “active; positive” under setting [4]; “inactive; negative” (Test System: AMES SALMONELLA TYPHIMURIUM, Strain/Indicator: TA1535, Metabolic Activation: NONE, Method: STANDARD PLATE); “inactive; negative” (Test System: AMES SALMONELLA TYPHIMURIUM, Strain/Indicator: TA1535, Metabolic Activation: RAT, LIVER, S-9, AROCLOR 1254, Method: STANDARD PLATE). For the same molecule, the mutagenic call by setting is: (Test System: AMES SALMONELLA TYPHIMURIUM, Strain/Indicator: TA1537, Metabolic Activation: NONE, Method: STANDARD PLATE) “active; positive”; (Test System: AMES SALMONELLA TYPHIMURIUM, Strain/Indicator: TA1537, Metabolic Activation: RAT, LIVER, S-9, AROCLOR 1254, Method: STANDARD PLATE) “active; positive”; under setting [5], “active; positive”; (Test System: AMES SALMONELLA TYPHIMURIUM, Strain/Indicator: TA1538, Metabolic Activation: RAT, LIVER, S-9, AROCLOR 1254, Method: STANDARD PLATE) “active; positive”; (Test System: CHINESE HAMSTER V-79, Strain/Indicator: V-79 (HGPRT)/6-THIOGUANINE, Metabolic Activation: RAT, LIVER, S-9, AROCLOR 1254) “inactive; negative”; under setting [6], “inactive; negative”. Further, the mutagenic call (Test System: UDS RAT HEPATOCYTES, Strain/Indicator: THY INCORP, Metabolic Activation: NONE, Method: AUTORADIOGRAPHY) was “inactive; negative”.
Regarding `CC(=O)ON(C(C)=O)c1ccc2c(c1)Cc1ccccc1-2`, the mutagenic call under setting [1] is “active; positive”; the mutagenic call under setting [2] was “active; positive”; the mutagenic call under setting [5] was “active; positive”; the mutagenic call (Test System: AMES SALMONELLA TYPHIMURIUM, Strain/Indicator: TA1538, Metabolic Activation: RAT, LIVER, S-9, KC500 OR PHENOBARBITAL, Method: LIQUID SUSPENSION) is “active; positive”; the mutagenic call under setting [6] is “active; positive”; the mutagenic call (Test System: CHINESE HAMSTER V-79, Strain/Indicator: V-79/8-AZAGUANINE, Metabolic Activation: NONE, Method: STANDARD PLATE) was “active; positive”. Besides, the mutagenic call is, setting by setting: (Test System: UDS HUMAN CELLS, Strain/Indicator: THY INCORP (NON-S-PHASE), Metabolic Activation: NONE, Method: LIQUID SCINTILLATION COUNTING) “active; positive”; (Test System: UDS HUMAN FIBROBLASTS, Strain/Indicator: THY INCORP (NON-S-PHASE), Metabolic Activation: NONE, Method: AUTORADIOGRAPHY) “active; positive”; (Test System: UDS HUMAN FIBROBLASTS, Strain/Indicator: THY INCORP (NON-S-PHASE), Metabolic Activation: NONE, Method: LIQUID SCINTILLATION COUNTING) “active; positive”; (Test System: UDS HUMAN LYMPHOCYTES, Strain/Indicator: THY INCORP (NON-S-PHASE), Metabolic Activation: NONE, Method: LIQUID SCINTILLATION COUNTING) “active; positive”; (Test System: UDS RODENT CELLS, Strain/Indicator: THY INCORP (NON-S-PHASE), Metabolic Activation: NONE, Method: AUTORADIOGRAPHY) “active; positive”; (Test System: UDS RODENT CELLS, Strain/Indicator: THY INCORP (NON-S-PHASE), Metabolic Activation: NONE, Method: LIQUID SCINTILLATION COUNTING) “active; positive”. Further, the mutagenic call (Test System: UDS RODENT HEPATOCYTES, Strain/Indicator: THY INCORP (NON-S-PHASE), Method: LIQUID SCINTILLATION COUNTING) was “active; positive” and the mutagenic call (Test System: UDS RODENT PRIMARY CELLS, Strain/Indicator: THY INCORP (NON-S-PHASE), Metabolic Activation: NONE, Method: AUTORADIOGRAPHY) is “active; positive”.
For the molecule `CN1C(=O)CN=C(c2ccccc2F)c2cc([N+](=O)[O-])ccc21`, the mutagenic call by setting is: under setting [3], “active; positive”; under setting [4], “active; positive”.
